Patent publication US5045559A, “Treatment of skin disorders” (priority 1988, dated 1991)
Where two headings read alike, the source gives them in different places.

Key:
[1] = In vitro delivery of pyroglutamic acid to stratum corneum of the rat (tritiated esters on newborn rat skin, resistant to 2 h water washing); type: in vitro ADME
Procedure: In vitro evidence to confirm delivery of pyroglutamic acid to stratum corneum of the rat
In an in vitro laboratory test, esters of pyroglutamic acid labelled with ^3 H on the pyroglutamic acid residue were applied as a 1% by weight solution in ethanol to newborn rat skin held in a glass cell, allowing the dermal side of the skin to be bathed in a buffered salts solution while the epidermal surface was exposed to normal atmospheric conditions. After 24 hours, samples of skin were taken and washed with continuous agitation in several charges of water at room temperature.
Interfollicular epidermis was removed from these skin pieces by "freeze scraping"-which avoids contamination of the sample by follicular tissue or material trapped within the hair follicle. The epidermis was then extracted in methanol and the soluble extract analysed by column chromatography. The amount of tritiated pyroglutamic acid present in the epidermis in a form resistant to a period of 2 hours continuous washing with water was measured. The quantity of tritiated pyroglutamic acid delivered and retained by the skin in this way is recorded in Table 1 below: […]

[2] = In vivo delivery to human stratum corneum (tritiated esters applied to arms of volunteers, tape stripping); conditions: 18 hours; for Pyroglutamic acid delivered, Ethanol base: 1% w/v in anhydrous ethanol; for Pyroglutamic acid delivered, Cream base: 1% w/v in oil-in-water emulsion base
Excerpt: Accordingly, [^3 H] esters of pyroglutamic acid were each dissolved at 1% w/v in anhydrous ethanol or in an oil-in-water emulsion base. […] The [^3 H] pyroglutamic acid was separated from unchanged ester by chromotography on AG1X8 resin and the amount delivered to the skin expressed as nmoles per mg of stratum corneum protein.

Structure (SMILES) | Pyroglutamic acid delivered [1] [n moles/cm^2 skin] | Pyroglutamic acid delivered, Ethanol base [2] [n mol/mg protein] | Pyroglutamic acid delivered, Cream base [2] [n mol/mg protein] | further results
COC(=O)[C@@H]1CCC(=O)N1 [Pyroglutamic acid, methyl ester, pyroglutamic acid methyl ester] | 17 ± 5 |  |  | 
CCCCCCCCCCCCOC(=O)[C@@H]1CCC(=O)N1 [Dodecyl, pyroglutamic acid n-dodecyl ester] |  | 4 | 1 | 
CCOC(=O)[C@@H]1CCC(=O)N1 [Pyroglutamic acid, ethyl ester, pyroglutamic acid ethyl ester] |  | 8 | 5 | Pyroglutamic acid delivered ([1]; 1% by weight in ethanol, newborn rat skin, 24 hours, resistant to 2 hours continuous washing with water): 18 ± 5 n moles/cm^2 skin
O=C1CCC(C(=O)O)N1 (stereo not shown) [pyroglutamic acid, 2-pyrrolidone-5-carboxylic acid, reference compound] |  |  |  | amount recovered from / reaching the stratum corneum following topical application (in words) [2]: little pyroglutamic acid reached the stratum corneum if applied as the free acid; amount recovered from / reaching the stratum corneum following topical application (in words) ([2]; listed as [^3 H] pyroglutamic acid): negligible amount

More lines, main results first:

Pyroglutamic acid delivered [1] [n moles/cm^2 skin] | Pyroglutamic acid delivered, Ethanol base [2] [n mol/mg protein] | Pyroglutamic acid delivered, Cream base [2] [n mol/mg protein] | Structure (SMILES) | further results
36 ± 7 | 4 | 1 | CCCCCCCCOC(=O)[C@@H]1CCC(=O)N1 [Pyroglutamic acid, n-octyl ester, pyroglutamic acid n-octyl ester] | delivery to the stratum corneum of pyroglutamic acid which resisted washing out with water (in words) [1]: best result
21 ± 8 |  |  | CCCOC(=O)[C@@H]1CCC(=O)N1 [Pyroglutamic acid, n-propyl ester, pyroglutamic acid n-propyl ester] | 
32 ± 10 | 5 | 2 | CCCCCCOC(=O)[C@@H]1CCC(=O)N1 [Pyroglutamic acid, n-hexyl ester, pyroglutamic acid n-hexyl ester] | 
17 ± 8 | 6 | 2 | CCCCOC(=O)[C@@H]1CCC(=O)N1 [Pyroglutamic acid, n-butyl ester, pyroglutamic acid n-butyl ester] | 
